Assay results reported in BigSolDB 2.1.

O=c1cc(CBr)c2ccccc2[nH]1
solubility (mole fraction)
Conditions | 273.15 K | 278.15 K | 283.15 K | 288.15 K | 293.15 K | 298.15 K | 303.15 K | 308.15 K | 313.15 K
in 1,4-dioxane | – | – | – | 0.000504 | 0.000625 | 0.000767 | 0.00092 | 0.00111 | 0.00137
in 2-butanone | 0.000321 | 0.000365 | 0.000408 | 0.000455 | 0.000511 | 0.00057 | 0.000634 | 0.00071 | 0.000792
in DMF | 0.00214 | 0.00272 | 0.00329 | 0.00399 | 0.00464 | 0.00542 | 0.00634 | 0.00729 | 0.00828
in DMSO | – | – | – | – | 0.0141 | 0.0185 | 0.0232 | 0.0284 | 0.0338
in NMP | 0.0044 | 0.00524 | 0.0062 | 0.00719 | 0.00827 | 0.00939 | 0.0108 | 0.0125 | 0.0143
in acetonitrile | 8e-05 | 9e-05 | 0.000104 | 0.000118 | 0.000134 | 0.00015 | 0.000171 | 0.000196 | 0.000223
in ethanol | 0.000173 | 0.000188 | 0.000206 | 0.000227 | 0.000247 | 0.000271 | 0.000301 | 0.000338 | 0.000385
in isopropanol | 0.000136 | 0.000154 | 0.000177 | 0.0002 | 0.000224 | 0.000248 | 0.000279 | 0.000316 | 0.00036
in methanol | 0.000113 | 0.000129 | 0.000146 | 0.000165 | 0.000186 | 0.000207 | 0.000234 | 0.000265 | 0.000303
in n-butanol | 0.00029 | 0.000311 | 0.000333 | 0.000361 | 0.000391 | 0.000425 | 0.000461 | 0.000508 | 0.000558
in n-propanol | 0.000224 | 0.00024 | 0.000262 | 0.000283 | 0.000309 | 0.000341 | 0.000379 | 0.000425 | 0.000476
in toluene | 1.5e-05 | 1.9e-05 | 2.3e-05 | 2.8e-05 | 3.2e-05 | 3.8e-05 | 4.3e-05 | 4.9e-05 | 5.6e-05
